ChEMBL document CHEMBL1201862, “PubChem BioAssay data set” (2004)
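Test compounds were applied to cells in 96-well plates for 48 hours at 5 doses. GI50 is the concentration that inhibits growth by half.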 Activity calls are given as the source filed them. No stated cut-off is given here; in the data, active = GI50 up to about 1.1 µM and inactive = higher.

Legend:
Experiment in all cases: inhibition of tumour cell growth, NCI panel, 48 h
DMS-114 = tested on: DMS-114
DMS-273 = tested on: DMS-273
KM-20L2 = tested on: KM-20L2
LXFL 529 = tested on: LXFL 529
M19-MEL = tested on: M19-MEL
RXF 631 = tested on: RXF 631
XF498 = tested on: XF498
HOP-18 = tested on: HOP-18
SNB-78 = tested on: SNB-78

Structure (SMILES)	GI50 (DMS-114)	GI50 (DMS-273)	GI50 (KM-20L2)	GI50 (LXFL 529)	GI50 (M19-MEL)	GI50 (RXF 631)	GI50 (XF498)	GI50 (HOP-18)	GI50 (SNB-78)
COC(=O)c1cc2ccccc2c2nc3ccccc3c(Cl)c12	> 100 µM (inactive)	> 100 µM (inactive)	11.4 µM (inactive)	> 100 µM (inactive)	> 100 µM (inactive)	> 100 µM (inactive)	> 100 µM (inactive)		
Cc1ccc(NC(=O)CCc2cc(C(C)(C)C)nc(S)n2)cc1C	> 100 µM (inactive)	> 100 µM (inactive)	> 100 µM (inactive)	> 100 µM (inactive)			> 100 µM (inactive)	> 100 µM (inactive)	> 100 µM (inactive)
Cc1ccc2c(c1)c(=O)c1c(NCCN(C)C)ccc3nnn2c31	5.26 µM (inactive)		3.03 µM (inactive)	3.48 µM (inactive)	6.21 µM (inactive)			9.93 µM (inactive)	6.22 µM (inactive)
COc1ccc2c(c1)Cc1c-2[nH]c2cc3c(cc2c1=O)OCO3	4.07 µM (inactive)	7.67 µM (inactive)	14.7 µM (inactive)	19.5 µM (inactive)	15.7 µM (inactive)		15 µM (inactive)	17.5 µM (inactive)	8.83 µM (inactive)
COc1ccc(CNc2nc3ccc(C(F)(F)F)cc3nc2-c2ccccc2)cc1OC		35.1 µM (inactive)	47.6 µM (inactive)	43.4 µM (inactive)	> 100 µM (inactive)	16.7 µM (inactive)	13.2 µM (inactive)	> 100 µM (inactive)	> 100 µM (inactive)
C[N+](C)(C)CC1CCCCC1=O (configuration not stated)	36.9 µM (inactive)	71.3 µM (inactive)	2 µM (inactive)		18.5 µM (inactive)			16.3 µM (inactive)	
Cc1cc(NCCCCCCNc2cc(C)nc3cc(N(C)C)ccc23)c2ccc(N(C)C)cc2n1		3.64 µM (inactive)			27.7 µM (inactive)	> 100 µM (inactive)	13.7 µM (inactive)		
[O-]c1c2c(nn1-c1ccccc1)c1ccccc1c[n+]2Cc1ccccc1	> 100 µM (inactive)	> 100 µM (inactive)	> 100 µM (inactive)	> 100 µM (inactive)	> 100 µM (inactive)	> 100 µM (inactive)	> 100 µM (inactive)	> 100 µM (inactive)	> 100 µM (inactive)
CSC(C1c2ccccc2N(c2ccc(C)cc2)c2[nH]c(=O)n(C)c(=O)c21)S(=O)(=O)c1ccc(C)cc1 (configuration not stated)	> 100 µM (inactive)	> 100 µM (inactive)	> 100 µM (inactive)	> 100 µM (inactive)	> 100 µM (inactive)		> 100 µM (inactive)		> 100 µM (inactive)
O=C1C(Cl)C(c2cccc([N+](=O)[O-])c2)N1n1cnc2ccccc2c1=O (configuration not stated)	86.9 µM (inactive)	> 100 µM (inactive)	85.7 µM (inactive)	92.3 µM (inactive)	> 100 µM (inactive)			11 µM (inactive)	
COc1ccc(C[C@@H]2NC[C@@H](O)[C@@H]2OC(C)=O)cc1	1.45 µM (inactive)	0.634 µM (active)	3.95 µM (inactive)	1.32 µM (inactive)	1.79 µM (inactive)			1.73 µM (inactive)	
C[N+]1(CCNP(=S)(NCC[N+]2(C)Cc3c(ccc4c3OCO4)C3C2c2cc4c(cc2C[C@@H]3O)OCO4)NCC[N+]2(C)Cc3c(ccc4c3OCO4)C3C2c2cc4c(cc2C[C@@H]3O)OCO4)Cc2c(ccc3c2OCO3)C2C1c1cc3c(cc1C[C@H]2O)OCO3 (some centres not stated)		< 0.00191 µM (active)	< 0.00191 µM (active)	< 0.00191 µM (active)	< 0.00191 µM (active)		< 0.00191 µM (active)	< 0.00191 µM (active)	< 0.00191 µM (active)
Nc1ccn(CCO)c(=O)n1	> 100 µM (inactive)	> 100 µM (inactive)	> 100 µM (inactive)	> 100 µM (inactive)	> 100 µM (inactive)			> 100 µM (inactive)	> 100 µM (inactive)
